Columns and labels:
[1] = molecular target: T1, Pyruvate kinase isolated from rabbit muscle (Oryctolagus cuniculus, UniProt P11974); experiment: Inhibition of pyruvate kinase (indirect assay quantifying ADP production); assay type: biochemical
T1 construct: Pyruvate kinase isolated from rabbit muscle; purchased Sigma-Aldrich; host or cells: rabbit muscle (tissue-derived enzyme)
Protocol: The compounds E-3-chlorophosphoenolpyruvate ditriethyl-ammonium salt (ECPDAT), Z-3-chlorophosphoenolpyruvate tritriethyl-ammonium salt (CPTP), phosphoenol-3-bromo-pyruvic acid mono-cyclohexyl ammonium salt (PBPA), 2-bromooxoethylphosphonic acid mono-cyclohexyl-ammonium salt (BOEPA) and 3-bromopyruvic acid (BrPyA) were tested for their efficiency at inhibiting pyruvate kinase. Pyruvate kinase isolated from rabbit muscle was purchased from Sigma-Aldrich. Pyruvate kinase was assayed indirectly by quantifying ADP production formed in the reaction ATP+pyruvate to ADP+phosphoenolpyruvate. Inhibitors were added to the reaction mixture immediately before the reaction was started by the addition of ATP.

[2] = system: MCF7 (breast) cancer cell line; experiment: MTT assay, inhibition of cell proliferation, MCF7; assay type: cell-based; details: MCF7, 72 hours
Protocol: (§1) The compounds of the invention were tested for their inhibition potential of cell proliferation. MCF7 (breast) and SF268 (glioma) cancer cell lines were incubated with different concentrations of the compounds and their viability was assessed using an MTT (3-(4,5-dimethylthiazol-2-yl)-2,5-diphenyltetrazolium bromide) assay. The MTT assay is well known in the art (see for example Slater et al., Biochim. Biophys. Acta 77 (1963) 383). The cells were incubated with a given inhibitor for 72 hours and assayed.

[3] = system: SF268 (glioma) cancer cell line; experiment: MTT assay, inhibition of cell proliferation, SF268; assay type: cell-based; details: SF268, 72 hours
Protocol: as §1

T1 sequence (P11974 whole entry): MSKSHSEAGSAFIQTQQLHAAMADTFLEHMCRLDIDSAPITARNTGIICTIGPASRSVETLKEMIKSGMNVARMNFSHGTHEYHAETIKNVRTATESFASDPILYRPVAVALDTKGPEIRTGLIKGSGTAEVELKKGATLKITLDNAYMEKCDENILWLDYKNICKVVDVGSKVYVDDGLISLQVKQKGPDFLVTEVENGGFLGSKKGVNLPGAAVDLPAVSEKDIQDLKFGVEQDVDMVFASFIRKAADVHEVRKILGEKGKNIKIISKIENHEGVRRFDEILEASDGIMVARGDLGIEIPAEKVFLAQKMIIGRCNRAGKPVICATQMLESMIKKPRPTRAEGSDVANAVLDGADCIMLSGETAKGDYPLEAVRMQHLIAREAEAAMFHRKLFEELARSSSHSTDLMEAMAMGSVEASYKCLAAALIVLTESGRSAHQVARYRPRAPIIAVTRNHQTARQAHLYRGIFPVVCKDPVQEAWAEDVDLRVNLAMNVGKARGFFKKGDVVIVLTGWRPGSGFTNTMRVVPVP

## Z-3-chlorophosphoenolpyruvate tritriethyl-ammonium salt [CPTP]
[1]
  Inhibition of pyruvate kinase compared with BrPyA: inhibited pyruvate kinase at lower concentrations than BrPyA
[1]; Concentration 0.1 μM
  % Inhibition: 0%
[1]; Concentration 1 μM
  % Inhibition: 43.7%
[1]; Concentration 10 μM
  % Inhibition: 48.4%
[2]
  Inhibition of cell proliferation: inhibited cell proliferation
[2]; 10 uM
  % (A-Blank relative to control): 98.7%
  A-Blank (Average-Blank) O.D. at 570 nm: 0.7995 O.D.
  Average O.D. reading at 570 nm: 0.8822 O.D.
[2]; 25 uM
  % (A-Blank relative to control): 98.796%
  A-Blank (Average-Blank) O.D. at 570 nm: 0.8003 O.D.
  Average O.D. reading at 570 nm: 0.883 O.D.
[2]; 50 uM
  % (A-Blank relative to control): 101.05%
  A-Blank (Average-Blank) O.D. at 570 nm: 0.8185 O.D.
  Average O.D. reading at 570 nm: 0.9013 O.D.
[2]; 75 uM
  % (A-Blank relative to control): 96.173%
  A-Blank (Average-Blank) O.D. at 570 nm: 0.779 O.D.
  Average O.D. reading at 570 nm: 0.8618 O.D.
[2]; 100 uM
  % (A-Blank relative to control): 96.358%
  A-Blank (Average-Blank) O.D. at 570 nm: 0.7805 O.D.
  Average O.D. reading at 570 nm: 0.8633 O.D.
[2]; 200 uM
  % (A-Blank relative to control): 88.241%
  A-Blank (Average-Blank) O.D. at 570 nm: 0.7148 O.D.
  Average O.D. reading at 570 nm: 0.7975 O.D.
[2]; 300 uM
  % (A-Blank relative to control): 81.4198%
  A-Blank (Average-Blank) O.D. at 570 nm: 0.6595 O.D.
  Average O.D. reading at 570 nm: 0.7422 O.D.
[2]; 500 uM
  % (A-Blank relative to control): 71.39%
  A-Blank (Average-Blank) O.D. at 570 nm: 0.5783 O.D.
  Average O.D. reading at 570 nm: 0.661 O.D.
[3]
  Inhibition of cell proliferation: inhibited cell proliferation
[3]; 10 uM
  % (A-Blank relative to control): 99.42%
  A-Blank (Average-Blank) O.D. at 570 nm: 0.6887 O.D.
  Average O.D. reading at 570 nm: 0.775 O.D.
[3]; 25 uM
  % (A-Blank relative to control): 99.892%
  A-Blank (Average-Blank) O.D. at 570 nm: 0.692 O.D.
  Average O.D. reading at 570 nm: 0.7783 O.D.
[3]; 50 uM
  % (A-Blank relative to control): 98.232%
  A-Blank (Average-Blank) O.D. at 570 nm: 0.6805 O.D.
  Average O.D. reading at 570 nm: 0.7668 O.D.
[3]; 75 uM
  % (A-Blank relative to control): 93.829%
  A-Blank (Average-Blank) O.D. at 570 nm: 0.65 O.D.
  Average O.D. reading at 570 nm: 0.7363 O.D.
[3]; 100 uM
  % (A-Blank relative to control): 96.752%
  A-Blank (Average-Blank) O.D. at 570 nm: 0.6703 O.D.
  Average O.D. reading at 570 nm: 0.7565 O.D.
[3]; 200 uM
  % (A-Blank relative to control): 75.893%
  A-Blank (Average-Blank) O.D. at 570 nm: 0.5258 O.D.
  Average O.D. reading at 570 nm: 0.612 O.D.
[3]; 300 uM
  % (A-Blank relative to control): 57.4883%
  A-Blank (Average-Blank) O.D. at 570 nm: 0.3982 O.D.
  Average O.D. reading at 570 nm: 0.4845 O.D.
[3]; 500 uM
  % (A-Blank relative to control): 36.8459%
  A-Blank (Average-Blank) O.D. at 570 nm: 0.2552 O.D.
  Average O.D. reading at 570 nm: 0.3415 O.D.

## E-3-chlorophosphoenolpyruvate ditriethyl-ammonium salt [E-CPDA]
[1]
  Inhibition of pyruvate kinase compared with BrPyA: inhibited pyruvate kinase at lower concentrations than BrPyA
[1]; Concentration 0.1 μM
  % Inhibition: 0%
[1]; Concentration 1 μM
  % Inhibition: 10.9%
[1]; Concentration 10 μM
  % Inhibition: 100%
[2]
  Inhibition of cell proliferation: inhibited cell proliferation
[2]; 10 uM
  % (A-Blank relative to control): 101.1%
  A-Blank (Average-Blank) O.D. at 570 nm: 0.8245 O.D.
  Average O.D. reading at 570 nm: 0.91 O.D.
[2]; 25 uM
  % (A-Blank relative to control): 97.333%
  A-Blank (Average-Blank) O.D. at 570 nm: 0.7938 O.D.
  Average O.D. reading at 570 nm: 0.8793 O.D.
[2]; 50 uM
  % (A-Blank relative to control): 86.726%
  A-Blank (Average-Blank) O.D. at 570 nm: 0.7073 O.D.
  Average O.D. reading at 570 nm: 0.7928 O.D.
[2]; 75 uM
  % (A-Blank relative to control): 78.449%
  A-Blank (Average-Blank) O.D. at 570 nm: 0.6398 O.D.
  Average O.D. reading at 570 nm: 0.7253 O.D.
[2]; 100 uM
  % (A-Blank relative to control): 72.072%
  A-Blank (Average-Blank) O.D. at 570 nm: 0.5878 O.D.
  Average O.D. reading at 570 nm: 0.6733 O.D.
[2]; 200 uM
  % (A-Blank relative to control): 68.486%
  A-Blank (Average-Blank) O.D. at 570 nm: 0.5585 O.D.
  Average O.D. reading at 570 nm: 0.644 O.D.
[2]; 300 uM
  % (A-Blank relative to control): 7.8786%
  A-Blank (Average-Blank) O.D. at 570 nm: 0.06425 O.D.
  Average O.D. reading at 570 nm: 0.1497 O.D.
[2]; 500 uM
  % (A-Blank relative to control): 2.759%
  A-Blank (Average-Blank) O.D. at 570 nm: 0.0225 O.D.
  Average O.D. reading at 570 nm: 0.108 O.D.
[3]
  Inhibition of cell proliferation: inhibited cell proliferation
[3]; 10 uM
  % (A-Blank relative to control): 80.1%
  A-Blank (Average-Blank) O.D. at 570 nm: 0.672 O.D.
  Average O.D. reading at 570 nm: 0.777 O.D.
[3]; 25 uM
  % (A-Blank relative to control): 80.453%
  A-Blank (Average-Blank) O.D. at 570 nm: 0.675 O.D.
  Average O.D. reading at 570 nm: 0.78 O.D.
[3]; 50 uM
  % (A-Blank relative to control): 64.243%
  A-Blank (Average-Blank) O.D. at 570 nm: 0.539 O.D.
  Average O.D. reading at 570 nm: 0.644 O.D.
[3]; 75 uM
  % (A-Blank relative to control): 44.458%
  A-Blank (Average-Blank) O.D. at 570 nm: 0.373 O.D.
  Average O.D. reading at 570 nm: 0.478 O.D.
[3]; 100 uM
  % (A-Blank relative to control): 30.513%
  A-Blank (Average-Blank) O.D. at 570 nm: 0.256 O.D.
  Average O.D. reading at 570 nm: 0.361 O.D.
[3]; 200 uM
  % (A-Blank relative to control): 13.23%
  A-Blank (Average-Blank) O.D. at 570 nm: 0.111 O.D.
  Average O.D. reading at 570 nm: 0.216 O.D.
[3]; 300 uM
  % (A-Blank relative to control): 6.555%
  A-Blank (Average-Blank) O.D. at 570 nm: 0.055 O.D.
  Average O.D. reading at 570 nm: 0.16 O.D.
[3]; 500 uM
  % (A-Blank relative to control): 3.099%
  A-Blank (Average-Blank) O.D. at 570 nm: 0.026 O.D.
  Average O.D. reading at 570 nm: 0.131 O.D.

Source: US8026278B2, “Inhibitors of pyruvate kinase as therapeutic agents for cancer” (priority 2005, dated 2011)
